# According to article PMC5392334, “Discovery and characterization of a novel irreversible EGFR mutants selective and potent kinase inhibitor CHMFL-EGFR-26 with a distinct binding mode” (Oncotarget, 2017):
# Tests used:
# YSK4 = molecular target: T1, YSK4 (Homo sapiens, UniProt Q56UN5); assay: KinomeScan; format: binding; conditions: read-out: % control
# T1 construct: purchased DiscoveRx KINOMEscan
# GRK4 = molecular target: T2, GRK4 (Homo sapiens, UniProt P32298); assay: KinomeScan; format: binding; conditions: read-out: % control
# T2 construct: purchased DiscoveRx KINOMEscan
# T2 sequence (P32298 whole entry): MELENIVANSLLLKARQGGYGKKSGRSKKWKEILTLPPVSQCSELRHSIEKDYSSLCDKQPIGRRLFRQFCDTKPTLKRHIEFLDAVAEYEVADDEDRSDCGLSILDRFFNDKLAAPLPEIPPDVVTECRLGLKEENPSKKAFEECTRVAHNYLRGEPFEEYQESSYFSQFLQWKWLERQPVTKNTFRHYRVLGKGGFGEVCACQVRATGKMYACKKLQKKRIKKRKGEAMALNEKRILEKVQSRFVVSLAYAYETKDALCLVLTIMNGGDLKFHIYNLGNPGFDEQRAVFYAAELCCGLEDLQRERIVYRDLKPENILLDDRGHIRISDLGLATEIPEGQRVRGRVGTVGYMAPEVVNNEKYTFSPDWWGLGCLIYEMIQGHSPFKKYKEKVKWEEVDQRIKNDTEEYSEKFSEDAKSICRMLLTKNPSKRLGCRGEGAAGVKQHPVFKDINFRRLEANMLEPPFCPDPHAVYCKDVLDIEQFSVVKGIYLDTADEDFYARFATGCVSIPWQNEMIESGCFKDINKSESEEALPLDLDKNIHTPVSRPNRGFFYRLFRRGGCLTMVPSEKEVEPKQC
# MST2 = molecular target: T3, MST2 (Homo sapiens, UniProt Q13188); assay: KinomeScan; format: binding; conditions: read-out: % control
# T3 construct: purchased DiscoveRx KINOMEscan
# T3 sequence (Q13188 whole entry): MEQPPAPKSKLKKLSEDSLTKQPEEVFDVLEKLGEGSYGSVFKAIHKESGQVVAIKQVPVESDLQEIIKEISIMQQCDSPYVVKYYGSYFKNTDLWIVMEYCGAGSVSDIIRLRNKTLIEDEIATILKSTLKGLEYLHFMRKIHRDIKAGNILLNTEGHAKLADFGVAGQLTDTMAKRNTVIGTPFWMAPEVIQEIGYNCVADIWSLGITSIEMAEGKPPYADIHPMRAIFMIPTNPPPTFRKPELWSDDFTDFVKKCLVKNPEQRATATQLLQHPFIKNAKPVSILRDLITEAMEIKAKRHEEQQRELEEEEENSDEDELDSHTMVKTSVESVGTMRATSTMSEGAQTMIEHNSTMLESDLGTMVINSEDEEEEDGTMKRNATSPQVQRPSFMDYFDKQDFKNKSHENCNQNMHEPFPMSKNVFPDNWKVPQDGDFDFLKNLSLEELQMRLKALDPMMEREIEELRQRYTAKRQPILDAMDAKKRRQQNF
# MEK2 = molecular target: T4, MEK2 (Homo sapiens, UniProt P36507); assay: KinomeScan; format: binding; conditions: read-out: % control
# T4 construct: purchased DiscoveRx KINOMEscan
# HIPK1 = molecular target: T5, HIPK1 (Homo sapiens, UniProt Q86Z02); assay: KinomeScan; format: binding; conditions: read-out: % control
# T5 construct: purchased DiscoveRx KINOMEscan
# EPHB2 = molecular target: T6, EPHB2 (Homo sapiens, UniProt P29323); assay: KinomeScan; format: binding; conditions: read-out: % control
# T6 construct: purchased DiscoveRx KINOMEscan
# MET = molecular target: T7, MET (Homo sapiens, UniProt P08581); assay: KinomeScan; format: binding; conditions: read-out: % control
# T7 construct: purchased DiscoveRx KINOMEscan
# T7 sequence (P08581 25-1390): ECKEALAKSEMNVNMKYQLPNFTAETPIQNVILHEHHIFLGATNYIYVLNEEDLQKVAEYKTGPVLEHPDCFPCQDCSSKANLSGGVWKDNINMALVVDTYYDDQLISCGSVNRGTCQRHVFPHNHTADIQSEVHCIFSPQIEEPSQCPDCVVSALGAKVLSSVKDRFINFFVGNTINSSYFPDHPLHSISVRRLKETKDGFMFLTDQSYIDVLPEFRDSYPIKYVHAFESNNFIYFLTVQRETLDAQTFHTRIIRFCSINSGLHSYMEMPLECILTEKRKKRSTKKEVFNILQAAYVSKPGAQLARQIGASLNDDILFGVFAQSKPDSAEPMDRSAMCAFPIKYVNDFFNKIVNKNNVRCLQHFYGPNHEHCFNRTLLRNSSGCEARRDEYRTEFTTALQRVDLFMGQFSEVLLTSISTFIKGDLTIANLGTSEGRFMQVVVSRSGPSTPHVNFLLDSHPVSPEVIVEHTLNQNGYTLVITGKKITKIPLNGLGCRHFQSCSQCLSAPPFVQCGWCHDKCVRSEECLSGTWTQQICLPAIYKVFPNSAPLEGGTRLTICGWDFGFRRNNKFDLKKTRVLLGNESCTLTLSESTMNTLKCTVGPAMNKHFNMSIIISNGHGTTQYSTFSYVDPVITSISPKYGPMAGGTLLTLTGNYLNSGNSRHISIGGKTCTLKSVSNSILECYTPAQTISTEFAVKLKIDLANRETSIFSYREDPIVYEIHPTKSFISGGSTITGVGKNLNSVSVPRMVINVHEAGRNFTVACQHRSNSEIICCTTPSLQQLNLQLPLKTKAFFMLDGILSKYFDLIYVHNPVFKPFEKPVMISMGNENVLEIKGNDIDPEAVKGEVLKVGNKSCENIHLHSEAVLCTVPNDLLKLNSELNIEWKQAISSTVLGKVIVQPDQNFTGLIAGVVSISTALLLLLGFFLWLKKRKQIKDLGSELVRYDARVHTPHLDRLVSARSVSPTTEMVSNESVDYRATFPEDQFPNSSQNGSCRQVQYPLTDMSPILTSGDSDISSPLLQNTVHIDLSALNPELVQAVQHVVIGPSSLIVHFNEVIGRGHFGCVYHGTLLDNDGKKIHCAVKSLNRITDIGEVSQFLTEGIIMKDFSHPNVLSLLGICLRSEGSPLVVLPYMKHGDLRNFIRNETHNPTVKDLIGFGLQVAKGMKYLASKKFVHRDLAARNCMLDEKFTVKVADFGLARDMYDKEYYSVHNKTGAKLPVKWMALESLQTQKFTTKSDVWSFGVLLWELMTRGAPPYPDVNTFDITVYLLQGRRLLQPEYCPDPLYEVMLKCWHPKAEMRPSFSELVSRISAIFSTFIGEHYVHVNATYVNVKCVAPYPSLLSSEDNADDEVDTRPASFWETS
# ERK4 = molecular target: T8, ERK4 (Homo sapiens, UniProt P31152); assay: KinomeScan; format: binding; conditions: read-out: % control
# T8 construct: purchased DiscoveRx KINOMEscan
# [1] = molecular target: T9, RSK4(Kin.Dom.1-N-terminal) (Homo sapiens, UniProt Q9UK32); assay: KinomeScan; format: binding; conditions: read-out: % control
# T9 construct: RSK4(Kin.Dom.1-N-terminal); purchased DiscoveRx KINOMEscan
# T9 sequence (Q9UK32 1-400 limits assumed): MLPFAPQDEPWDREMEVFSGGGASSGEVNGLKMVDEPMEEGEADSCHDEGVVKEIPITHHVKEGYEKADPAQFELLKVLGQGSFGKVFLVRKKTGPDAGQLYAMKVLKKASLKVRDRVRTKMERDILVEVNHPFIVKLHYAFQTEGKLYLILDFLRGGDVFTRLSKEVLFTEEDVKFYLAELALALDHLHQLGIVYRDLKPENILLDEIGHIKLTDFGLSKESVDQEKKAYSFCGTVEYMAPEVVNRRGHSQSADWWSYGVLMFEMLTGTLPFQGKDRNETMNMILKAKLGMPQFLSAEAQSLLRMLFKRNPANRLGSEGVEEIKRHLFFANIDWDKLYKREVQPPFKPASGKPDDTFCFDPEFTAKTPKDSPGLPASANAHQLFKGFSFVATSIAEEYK
# CAMKK2 = molecular target: T10, CAMKK2 (Homo sapiens, UniProt Q96RR4); assay: KinomeScan; format: binding; conditions: read-out: % control
# T10 construct: purchased DiscoveRx KINOMEscan
# DAPK3 = molecular target: T11, DAPK3 (Homo sapiens, UniProt O43293); assay: KinomeScan; format: binding; conditions: read-out: % control
# T11 construct: purchased DiscoveRx KINOMEscan
# T11 sequence (O43293 whole entry): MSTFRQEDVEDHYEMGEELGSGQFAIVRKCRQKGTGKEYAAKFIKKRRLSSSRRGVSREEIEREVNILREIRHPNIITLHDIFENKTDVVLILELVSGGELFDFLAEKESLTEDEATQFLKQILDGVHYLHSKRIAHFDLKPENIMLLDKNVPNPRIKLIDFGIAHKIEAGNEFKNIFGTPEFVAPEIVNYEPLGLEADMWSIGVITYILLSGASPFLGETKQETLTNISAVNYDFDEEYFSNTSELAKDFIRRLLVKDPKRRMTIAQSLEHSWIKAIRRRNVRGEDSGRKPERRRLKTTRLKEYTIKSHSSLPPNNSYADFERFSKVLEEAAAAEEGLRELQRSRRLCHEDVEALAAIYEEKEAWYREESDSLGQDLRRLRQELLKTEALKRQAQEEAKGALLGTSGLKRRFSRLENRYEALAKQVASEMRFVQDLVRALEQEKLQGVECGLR
# TNK1 = molecular target: T12, TNK1 (Homo sapiens, UniProt Q13470); assay: KinomeScan; format: binding; conditions: read-out: % control
# T12 construct: purchased DiscoveRx KINOMEscan
# CASK = molecular target: T13, CASK (Homo sapiens, UniProt O14936); assay: KinomeScan; format: binding; conditions: read-out: % control
# T13 construct: purchased DiscoveRx KINOMEscan
# DCAMKL1 = molecular target: T14, DCAMKL1 (Homo sapiens, UniProt O15075); assay: KinomeScan; format: binding; conditions: read-out: % control
# T14 construct: purchased DiscoveRx KINOMEscan
# TAOK1 = molecular target: T15, TAOK1 (Homo sapiens, UniProt Q7L7X3); assay: KinomeScan; format: binding; conditions: read-out: % control
# T15 construct: purchased DiscoveRx KINOMEscan
# BRSK2 = molecular target: T16, BRSK2 (Homo sapiens, UniProt Q8IWQ3); assay: KinomeScan; format: binding; conditions: read-out: % control
# T16 construct: purchased DiscoveRx KINOMEscan
# T16 sequence (Q8IWQ3 whole entry): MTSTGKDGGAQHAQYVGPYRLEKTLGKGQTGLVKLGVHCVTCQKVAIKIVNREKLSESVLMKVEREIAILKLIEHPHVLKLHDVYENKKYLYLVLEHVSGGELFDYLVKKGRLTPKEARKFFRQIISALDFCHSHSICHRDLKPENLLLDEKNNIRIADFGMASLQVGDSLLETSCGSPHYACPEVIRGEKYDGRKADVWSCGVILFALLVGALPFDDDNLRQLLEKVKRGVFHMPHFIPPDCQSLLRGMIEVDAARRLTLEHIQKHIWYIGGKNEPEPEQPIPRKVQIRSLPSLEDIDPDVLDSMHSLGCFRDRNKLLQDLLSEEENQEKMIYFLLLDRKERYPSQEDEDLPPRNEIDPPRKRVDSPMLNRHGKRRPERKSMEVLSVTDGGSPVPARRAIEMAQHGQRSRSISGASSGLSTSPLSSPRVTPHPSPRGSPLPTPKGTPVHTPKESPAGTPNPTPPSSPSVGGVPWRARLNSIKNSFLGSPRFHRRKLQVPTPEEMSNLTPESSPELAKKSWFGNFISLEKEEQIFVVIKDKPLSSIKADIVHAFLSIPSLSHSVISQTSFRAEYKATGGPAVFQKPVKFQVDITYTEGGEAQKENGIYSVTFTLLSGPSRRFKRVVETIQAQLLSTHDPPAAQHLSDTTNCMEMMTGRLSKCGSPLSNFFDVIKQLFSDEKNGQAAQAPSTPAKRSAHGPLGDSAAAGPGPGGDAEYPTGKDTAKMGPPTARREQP
# [2] = molecular target: T17, ABL1(T315I)-phosphorylated (Homo sapiens, UniProt P00519, T315I); assay: KinomeScan; format: binding; conditions: read-out: % control
# T17 construct: purchased DiscoveRx KINOMEscan
# [3] = molecular target: T18, ABL1(Q252H)-phosphorylated (Homo sapiens, UniProt P00519, Q252H); assay: KinomeScan; format: binding; conditions: read-out: % control
# T18 construct: purchased DiscoveRx KINOMEscan
# Parental BaF3 = assay: Anti-proliferation, BaF3 isogenic cell lines (CellTiter-Glo); format: cell-based; conditions: Mus musculus
# PKN1 = molecular target: T19, PKN1 (Homo sapiens, UniProt Q16512); assay: KinomeScan; format: binding; conditions: read-out: % control
# T19 construct: purchased DiscoveRx KINOMEscan
# EGFR(L858R,T790M) = molecular target: T20, EGFR(L858R,T790M) (Homo sapiens, UniProt P00533, L858R/T790M); assay: KinomeScan; format: binding; conditions: read-out: % control
# T20 construct: purchased DiscoveRx KINOMEscan
# EPHA5 = molecular target: T21, EPHA5 (Homo sapiens, UniProt P54756); assay: KinomeScan; format: binding; conditions: read-out: % control
# T21 construct: purchased DiscoveRx KINOMEscan
# RIPK1 = molecular target: T22, RIPK1 (Homo sapiens, UniProt Q13546); assay: KinomeScan; format: binding; conditions: read-out: % control
# T22 construct: purchased DiscoveRx KINOMEscan
# PFCDPK1(P.falciparum) = molecular target: T23, PFCDPK1(P.falciparum) (Plasmodium falciparum, UniProt P62344); assay: KinomeScan; format: binding; conditions: read-out: % control
# T23 construct: purchased DiscoveRx KINOMEscan
# MLK2 = molecular target: T24, MLK2 (Homo sapiens, UniProt Q02779); assay: KinomeScan; format: binding; conditions: read-out: % control
# T24 construct: purchased DiscoveRx KINOMEscan
# CDK11 = molecular target: T25, CDK11 (Homo sapiens, UniProt Q9BWU1); assay: KinomeScan; format: binding; conditions: read-out: % control
# T25 construct: purchased DiscoveRx KINOMEscan
# DYRK1A = molecular target: T26, DYRK1A (Homo sapiens, UniProt Q13627); assay: KinomeScan; format: binding; conditions: read-out: % control
# T26 construct: purchased DiscoveRx KINOMEscan
# CHL = assay: Anti-proliferation, normal cells (CellTiter-Glo); conditions: Cricetulus griseus, 72 h
# Protocol: (§1) Cells were grown in 96-well culture plates (2500-3000/well). For adherent cell lines, compounds of various concentrations were added into the plates after cells were cultured for 12 hours. Cell proliferation was determined after treatment with compounds for 72 hours. Cell viability was measured using the CellTiter–Glo assay (Promega, USA) according to the manufacturer's instructions, and luminescence was measured in a multi-label reader (Envision, PerkinElmer, USA). Data were normalized to control groups (DMSO) and represented by the mean of three independent measurements with standard error <20%. GI50 values were calculated using Prism 5.0 (GraphPad Software, San Diego, CA).
# SYK = molecular target: T27, SYK (Homo sapiens, UniProt P43405); assay: KinomeScan; format: binding; conditions: read-out: % control
# T27 construct: purchased DiscoveRx KINOMEscan
# [4] = system: BaF3-FL-EGFR-L858R-T790M-C797S; assay: Anti-proliferation, BaF3 isogenic cell lines (CellTiter-Glo); format: cell-based; conditions: Mus musculus, 72 hours, triplet testing
# FLT3(ITD) = assay: KinomeScan; format: binding; conditions: 1μM
# p38-delta = molecular target: T28, p38-delta (Homo sapiens, UniProt O15264); assay: KinomeScan; format: binding; conditions: read-out: % control
# T28 construct: purchased DiscoveRx KINOMEscan
# T28 sequence (O15264 whole entry): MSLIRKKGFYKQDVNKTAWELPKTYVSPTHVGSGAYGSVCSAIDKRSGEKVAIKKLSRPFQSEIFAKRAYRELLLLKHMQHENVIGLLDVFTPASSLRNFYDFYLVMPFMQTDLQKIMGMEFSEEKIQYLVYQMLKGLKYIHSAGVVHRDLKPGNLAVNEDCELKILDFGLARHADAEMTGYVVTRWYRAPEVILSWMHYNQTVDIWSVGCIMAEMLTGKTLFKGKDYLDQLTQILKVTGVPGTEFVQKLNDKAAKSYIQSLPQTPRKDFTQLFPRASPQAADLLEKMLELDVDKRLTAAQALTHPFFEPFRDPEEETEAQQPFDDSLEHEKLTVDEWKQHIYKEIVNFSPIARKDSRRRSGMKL
# TSSK3 = molecular target: T29, TSSK3 (Homo sapiens, UniProt Q96PN8); assay: KinomeScan; format: binding; conditions: read-out: % control
# T29 construct: purchased DiscoveRx KINOMEscan
# T29 sequence (Q96PN8 whole entry): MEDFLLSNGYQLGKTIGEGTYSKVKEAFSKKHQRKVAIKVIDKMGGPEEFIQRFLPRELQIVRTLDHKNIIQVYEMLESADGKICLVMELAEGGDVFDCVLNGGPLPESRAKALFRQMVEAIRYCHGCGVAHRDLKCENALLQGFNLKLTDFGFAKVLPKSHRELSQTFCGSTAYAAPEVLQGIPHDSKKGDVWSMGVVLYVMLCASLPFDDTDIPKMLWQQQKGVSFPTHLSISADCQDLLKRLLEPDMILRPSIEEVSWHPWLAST
# BaF3-TEL-EGFR = assay: Anti-proliferation, BaF3 isogenic cell lines (CellTiter-Glo); format: cell-based; conditions: Mus musculus, 72 hours, triplet testing
# PKN2 = molecular target: T30, PKN2 (Homo sapiens, UniProt Q16513); assay: KinomeScan; format: binding; conditions: read-out: % control
# T30 construct: purchased DiscoveRx KINOMEscan
# PRKD1 = molecular target: T31, PRKD1 (Homo sapiens, UniProt Q15139); assay: KinomeScan; format: binding; conditions: read-out: % control
# T31 construct: purchased DiscoveRx KINOMEscan
# KIT(A829P) = molecular target: T32, KIT(A829P) (Homo sapiens, UniProt P10721, A829P); assay: KinomeScan; format: binding; conditions: read-out: % control
# T32 construct: purchased DiscoveRx KINOMEscan
# PAK7 = molecular target: T33, PAK7 (Homo sapiens, UniProt Q9P286); assay: KinomeScan; format: binding; conditions: read-out: % control
# T33 construct: purchased DiscoveRx KINOMEscan
# CHO = assay: Anti-proliferation, normal cells (CellTiter-Glo); conditions: Cricetulus griseus, 72 h
# Protocol: as §1
# MET(Y1235D) = molecular target: T34, MET(Y1235D) (Homo sapiens, UniProt P08581, Y1235D); assay: KinomeScan; format: binding; conditions: read-out: % control
# T34 construct: purchased DiscoveRx KINOMEscan
# PIM2 = molecular target: T35, PIM2 (Homo sapiens, UniProt Q9P1W9); assay: KinomeScan; format: binding; conditions: read-out: % control
# T35 construct: purchased DiscoveRx KINOMEscan
# T35 sequence (Q9P1W9 whole entry): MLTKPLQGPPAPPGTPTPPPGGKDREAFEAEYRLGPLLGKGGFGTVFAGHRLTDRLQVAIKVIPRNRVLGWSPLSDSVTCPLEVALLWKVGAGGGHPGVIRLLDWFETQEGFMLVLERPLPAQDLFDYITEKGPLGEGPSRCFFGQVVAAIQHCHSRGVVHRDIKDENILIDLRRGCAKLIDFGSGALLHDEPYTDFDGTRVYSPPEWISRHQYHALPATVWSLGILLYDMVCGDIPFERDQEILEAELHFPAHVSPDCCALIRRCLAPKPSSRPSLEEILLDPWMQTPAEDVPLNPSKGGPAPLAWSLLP
# CDK2 = molecular target: T36, CDK2 (Homo sapiens, UniProt P24941); assay: KinomeScan; format: binding; conditions: read-out: % control
# T36 construct: purchased DiscoveRx KINOMEscan
smiles,measurement,setting,value
C=CC(=O)N1CCC[C@@H](n2nc(-c3ccc(OCc4cccc(C)n4)c(Cl)c3)c3c(N)ncnc32)C1 [CHMFL-EGFR-26],remaining binding at 1 µM,YSK4,67%
same,remaining binding at 1 µM,GRK4,88%
same,remaining binding at 1 µM,MST2,53%
same,remaining binding at 1 µM,MEK2,1.1%
same,remaining binding at 1 µM,HIPK1,98%
same,remaining binding at 1 µM,EPHB2,100%
same,remaining binding at 1 µM,MET,96%
same,remaining binding at 1 µM,ERK4,83%
same,remaining binding at 1 µM,[1],100%
same,remaining binding at 1 µM,CAMKK2,75%
same,remaining binding at 1 µM,DAPK3,98%
same,remaining binding at 1 µM,TNK1,64%
same,remaining binding at 1 µM,CASK,95%
same,remaining binding at 1 µM,DCAMKL1,88%
same,remaining binding at 1 µM,TAOK1,100%
same,remaining binding at 1 µM,BRSK2,97%
same,remaining binding at 1 µM,[2],98%
same,remaining binding at 1 µM,[3],100%
same,IC50,"Parental BaF3; Parental BaF3, Supplementary Table 3, read-out: IC50 (anti-proliferative)",9 µM
same,GI50,"Parental BaF3; Parental BaF3, 72 hours, triplet testing",> 10 µM
same,remaining binding at 1 µM,PKN1,99%
same,remaining binding at 1 µM,"EGFR(L858R,T790M)",2.8%
same,remaining binding at 1 µM,EPHA5,100%
same,remaining binding at 1 µM,RIPK1,100%
same,remaining binding at 1 µM,PFCDPK1(P.falciparum),54%
same,remaining binding at 1 µM,MLK2,80%
same,remaining binding at 1 µM,CDK11,100%
same,remaining binding at 1 µM,DYRK1A,100%
same,GI50,CHL,> 10 µM
same,remaining binding at 1 µM,SYK,94%
same,GI50,[4],340 nM
same,% control,FLT3(ITD),87%
same,remaining binding at 1 µM,p38-delta,83%
same,remaining binding at 1 µM,TSSK3,100%
same,GI50,BaF3-TEL-EGFR,5.4 µM
same,remaining binding at 1 µM,PKN2,53%
same,remaining binding at 1 µM,PRKD1,85%
same,remaining binding at 1 µM,KIT(A829P),100%
same,remaining binding at 1 µM,PAK7,67%
same,GI50,CHO,> 10 µM
same,remaining binding at 1 µM,MET(Y1235D),55%
same,remaining binding at 1 µM,PIM2,100%
same,remaining binding at 1 µM,CDK2,100%
